In patent publication US10752640B2, “Compounds active towards bromodomains” (NUEVOLUTION A/S, priority 2014, dated 2020):
pIC50: −log10 of the molar value.

Molecular target: BRD4 protein (Homo sapiens, UniProt O60885)
Experiment: FRET assay, half maximal inhibitory concentration (IC50)
Type: binding
Conditions: BRD4 protein 50 nM, Biotin-H4KAc4 peptide 12.5 nM; List of Classification
In short: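 Acetylated histone H4 peptide binding (biotin-H4KAc4, 12.5 nM final) to BRD4 (50 nM final) detected by TR-FRET between streptavidin cryptate (2.4 nM) and GST-XL665 antibody (10 nM) in KF/BSA. Buffer: HEPES pH 7.5, NaCl, CHAPS. Compound dilutions from 50 μM in 12.5% DMSO were preincubated with protein for 30 min. Variable-slope IC50.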

A pIC50 of over 6.70 was found for `Cc1cc(O)nc2ccc(NC(=O)c3cc(S(=O)(=O)N4CCOCC4)ccc3N3CCC(O)C3)cc12` (stereo not shown) [Compound-110, N-(2-hydroxy-4-methyl-6-quinolyl)-2-(3-hydroxypyrrolidin-1-yl)-5-morpholino-sulfonyl-benzamide] in this work.
A pIC50 of over 6.70 was found for `COC1CCN(c2ccc(S(=O)(=O)N3CCOCC3)cc2C(=O)Nc2ccc3nc(O)cc(C)c3c2)C1` (stereo not shown) [Compound-111, N-(2-hydroxy-4-methyl-6-quinolyl)-2-(3-methoxypyrrolidin-1-yl)-5-morpholino-sulfonyl-benzamide] in this work.
A pIC50 of over 6.70 was found for `Cc1cc(O)nc2ccc(NC(=O)c3cc(CC#N)ccc3N3CCCC3)cc12` [Compound-112, 5-(cyanomethyl)-N-(4-methyl-2-oxo-1,2-dihydroquinolin-6-yl)-2-(pyrrolidin-1-yl)benzamide] in this work.
A pIC50 of over 6.70 was found for `Cc1cc(O)nc2ccc(NC(=O)c3cc(C4(N5CCOCC5)CC4)ccc3N3CCCC3CN(C)C)cc12` (stereo not shown) [Compound-114, 2-(2-((dimethylamino)methyl)pyrrolidin-1-yl)-N-(2-hydroxy-4-methylquinolin-6-yl)-5-(1-morpholinocyclopropyl) benzamide] in this work.
A pIC50 of over 6.70 was found for `Cc1cc(O)nc2ccc(NC(=O)c3cc(C#N)ncc3N3CCC(F)C3)cc12` (stereo not shown) [Compound-115, 2-cyano-5-(3-fluoropyrrolidin-1-yl)-N-(2-hydroxy-4-methylquinolin-6-yl) isonicotinamide] in this work.
A pIC50 of over 6.70 was found for `Cc1cc(O)nc2ccc(NC(=O)c3cc(C#N)ncc3N3CCOCC3)cc12` [Compound-116, 2-cyano-N-(2-hydroxy-4-methylquinolin-6-yl)-5-morpholinoisonicotinamide] in this work.
A pIC50 of over 6.70 was found for `Cc1cc(O)nc2ccc(NC(=O)c3cccnc3N3CCOCC3C)cc12` (stereo not shown) [Compound-120, N-(2-hydroxy-4-methyl-6-quinolyl)-2-(3-methylmorpholin-4-yl)pyridine-3-carboxamide] in this work.
A pIC50 of over 6.70 was found for `Cc1cc(O)nc2ccc(NC(=O)c3cccnc3N3CCCC3CN(C)C)cc12` (stereo not shown) [Compound-121, 2-[2-(dimethylaminomethyl)pyrrolidin-1-yl]-N-(2-hydroxy-4-methyl-6-quinolyl)pyridine-3-carboxamide] in this work.
A pIC50 of over 6.70 was found for `Cc1cc(O)nc2ccc(NC(=O)c3cnccc3N3CCOCC3)cc12` [Compound-123, N-(2-hydroxy-4-methyl-6-quinolyl)-4-morpholino-pyridine-3-carboxamide] in this work.
A pIC50 of 6.30 to 6.70 was found for `Cc1cc(O)nc2ccc(NC(=O)c3cnccc3N3CCCC3)cc12` [Compound-124, N-(2-hydroxy-4-methyl-6-quinolyl)-4-pyrrolidin-1-yl-pyridine-3-carboxamide] in this work.
A pIC50 of 6.00 to 6.30 was found for `Cc1cc2nc(O)cc(C)c2cc1NC(=O)c1cccnc1N1CCOCC1` [Compound-125, N-(2-hydroxy-4,7-dimethyl-6-quinolyl)-2-morpholino-pyridine-3-carboxamide] in this work.
A pIC50 of 6.00 to 6.30 was found for `Cc1cc2nc(O)cc(C)c2cc1NC(=O)c1cccnc1N1CCC(F)C1` (stereo not shown) [Compound-126, 2-(3-fluoropyrrolidin-1-yl)-N-(2-hydroxy-4,7-dimethyl-6-quinolyl)pyridine-3-carboxamide] in this work.
A pIC50 of 6.30 to 6.70 was found for `Cc1cc2nc(O)cc(C)c2cc1NC(=O)c1cccnc1N1CCC(F)(F)C1` [Compound-127, 2-(3,3-difluoropyrrolidin-1-yl)-N-(2-hydroxy-4,7-dimethyl-6-quinolyl)pyridine-3-carboxamide] in this work.
A pIC50 of 5.00 to 6.00 was found for `CC(C)c1cc(O)nc2ccc(NC(=O)c3cccnc3N3CCOCC3)cc12` [Compound-129] in this work.
A pIC50 of 5.00 to 6.00 was found for `CN1Cc2cc(NC(=O)c3cccnc3N3CCOCC3)ccc2NC1=O` [Compound-130, N-(3-methyl-2-oxo-1,4-dihydroquinazolin-6-yl)-2-morpholino-pyridine-3-carboxamide] in this work.
A pIC50 of 5.00 to 6.00 was found for `CN1C(=O)CCc2cc(NC(=O)c3cccnc3N3CCOCC3)ccc21` [Compound-131, N-(1-methyl-2-oxo-3,4-dihydroquinolin-6-yl)-2-morpholino-pyridine-3-carboxamide] in this work.
